Source: US11667649B2, “Heteroaromatic macrocyclic ether chemotherapeutic agents” (Nuvalent, Inc., priority 2020, dated 2023)

Tested on: TPM3-NTRK1-wt IC50 / primary target (e.g. CD74-ROS1-wt) IC50, Ba/F3 cells
Assay: Cell assay TRKA selectivity (TRKA potency divided by primary target potency)
Format: cell-based
Conditions: for TPM3-NTRK1-wt/CD74-ROS1-G2032R: TRKA selectivity ratio: TPM3-NTRK1-wt IC50 / CD74-ROS1-G2032R IC50, Ba/F3 cells; for TPM3-NTRK1-wt/CD74-ROS1-wt: TRKA selectivity ratio: TPM3-NTRK1-wt IC50 / CD74-ROS1-wt IC50, Ba/F3 cells; for TPM3-NTRK1-wt/EML4-ALK-L1196M-G1202R: TRKA selectivity ratio: TPM3-NTRK1-wt IC50 / EML4-ALK-L1196M-G1202R IC50, Ba/F3 cells; for TPM3-NTRK1-wt/EML4-ALK-wt: TRKA selectivity ratio: TPM3-NTRK1-wt IC50 / EML4-ALK-wt IC50, Ba/F3 cells
In short: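 Ratio of TRKA to primary-target cellular IC50 (e.g. TPM3-NTRK1-wt/CD74-ROS1-wt), grouped into bins A >30, B >10, C ≥1, D <1. Each IC50 came from engineered Ba/F3 fusion lines grown without IL-3, dosed for 72 h and read as CellTiter-Glo luminescence, with a four-parameter logistic fit.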

SMILES	TPM3-NTRK1-wt/CD74-ROS1-G2032R	TPM3-NTRK1-wt/CD74-ROS1-wt	TPM3-NTRK1-wt/EML4-ALK-L1196M-G1202R	TPM3-NTRK1-wt/EML4-ALK-wt
CCn1nc(C(F)(F)F)c2c1-c1cnc(N)c(c1)O[C@H](C)c1cc(F)ccc1-c1nn(C)cc1C2 [Example 96, (19R)-3-ethyl-16-fluoro-10,19-dimethyl-5-(trifluoromethyl)-20-oxa-3,4,10,11,23-pentaazapentacyclo[19.3.1.0^2,^6.0^8,^12.0^13,^18]pentacosa-1(24),2(6),4,8,11,13,15,17,21(25),22-decaen-22-amine]	A (bin A for very high selectivity, ratio>30-fold)	A (bin A for very high selectivity, ratio>30-fold)	C (bin C for moderate selectivity, ratio≥1)	A (bin A for very high selectivity, ratio>30-fold)
C[C@H]1Oc2cc(cnc2N)-c2c(C#N)nnn2Cc2cccnc2-c2ccc(F)cc21 [Example 25, (20R)-23-amino-17-fluoro-20-methyl-21-oxa-4,5,6,12,24-pentaazapentacyclo[20.3.1.0^2,^6.0^8,^13.0^14,^19]hexacosa-1(25),2,4,8(13),9,11,14,16,18,22(26),23-undecaene-3-carbonitrile]	A (bin A for very high selectivity, ratio>30-fold)	A (bin A for very high selectivity, ratio>30-fold)	B (bin B for high selectivity, ratio>10-fold)	A (bin A for very high selectivity, ratio>30-fold)
CC1Oc2cc(cnc2N)-c2c(cnn2CCF)Cn2ccnc2-c2ccc(F)cc21 (stereo not drawn) [Example 39, 16-fluoro-3-(2-fluoroethyl)-19-methyl-20-oxa-3,4,8,11,23-pentaazapentacyclo[19.3.1.0^2,^6.0^8,^12.0^13,^18]pentacosa-1(24),2(6),4,9,11,13,15,17,21(25),22-decaen-22-amine]	A (bin A for very high selectivity, ratio>30-fold)	A (bin A for very high selectivity, ratio>30-fold)	C (bin C for moderate selectivity, ratio≥1)	A (bin A for very high selectivity, ratio>30-fold)
CCn1ncc2c1-c1cnc(N)c(c1)OCc1cc(F)ccc1-n1ncc(F)c1C2 [Example 48, 3-ethyl-9,16-difluoro-20-oxa-3,4,11,12,23-pentaazapentacyclo[19.3.1.0^2,^6.0^8,^12.0^13,^18]pentacosa-1(24),2(6),4,8,10,13,15,17,21(25),22-decaen-22-amine]	A (bin A for very high selectivity, ratio>30-fold)	A (bin A for very high selectivity, ratio>30-fold)	B (bin B for high selectivity, ratio>10-fold)	A (bin A for very high selectivity, ratio>30-fold)
CCn1ncc2c1-c1ccc(F)cc1[C@@H](C)Oc1cc(cnc1N)-c1c(cnn1C)C2 [Example 4, (19R)-11-ethyl-16-fluoro-3,19-dimethyl-20-oxa-3,4,10,11,23-pentaazapentacyclo[19.3.1.0^2,^6.0^8,^12.0^13,^18]pentacosa-1(24),2(6),4,8(12),9,13,15,17,21(25),22-decaen-22-amine]	B (bin B for high selectivity, ratio>10-fold)	A (bin A for very high selectivity, ratio>30-fold)	D (bin D for low selectivity, ratio<1)	C (bin C for moderate selectivity, ratio≥1)
C[C@H]1Oc2cc(cnc2N)-c2c(C(F)F)cnn2Cc2cc(F)cnc2-c2ccc(F)cc21 [Example 17, (20R)-3-(difluoromethyl)-10,17-difluoro-20-methyl-21-oxa-5,6,12,24-tetraazapentacyclo[20.3.1.0^2,^6.0^8,^13.0^14,^19]hexacosa-1(25),2,4,8(13),9,11,14,16,18,22(26),23-undecaen-23-amine]	B (bin B for high selectivity, ratio>10-fold)	A (bin A for very high selectivity, ratio>30-fold)	D (bin D for low selectivity, ratio<1)	B (bin B for high selectivity, ratio>10-fold)
